Molecules are shown by their SMILES.

Experiment [1] relates to hearts of aged (18-22 month old) WT mice. Briefly: Reversal of age-induced cardiac fibrosis and inflammation in aged WT mice (histology, immunofluorescence, western blot). The format is in vivo, mouse. How it is done: There are 8 different sets of in vivo experiments in this study: • A) Phenotypic characterisation of the heart and blood vessels in global IRAP knockout mice and their WT controls treated for 4 weeks with Angiotensin (Ang) II (800 ng/kg/min; s.c.) where mouse hearts and blood vessels were compared to tissue obtained from young WT and IRAP^−/− mice treated with saline. • B) Prevention of Ang II-induced changes in the cardiovascular system following IRAP inhibitor treatment. In the prevention model, WT mice were treated with Ang II (800 ng/kg/min; s.c.)±the IRAP inhibitor (HFI-419; 500 ng/kg/min for 28 days) or HFI-vehicle (1 DMSO:3 HBC). • C) Phenotypic characterisation of the aged heart, kidney and blood vessels in the global IRAP knockout mice where aged WT and IRAP^−/− mouse hearts, kidneys and blood vessels were compared to tissue obtained from young WT and IRAP^−/− mice. • D) Reversal of the age-induced changes in the cardiovascular system following IRAP inhibitor treatment. In the reversal model, aged WT mice were treated with either saline, IRAP inhibitor (HFI-419 at 500 ng/kg/min; compound 1 at 500 ng/kg/min; compound 2 at 50 ng/kg/min) or HFI-vehicle (1 DMSO: 3 HBC) for 4 weeks. • E) Prevention of ischemic-reperfusion injury in isolated hearts taken from aged global IRAP knockout mice and aged IRAP inhibitor (HFI-419 at 500 ng/kg/min; s.c.) treated WT mice compared to age-matched vehicle-treated (1 DMSO:3 HBC; s.c.) WT controls. • F) Phenotypic characterization of cardiac function using echocardiography in the aged global IRAP knockout mice compared to aged and young WT mice. • G) Phenotypic characterization of liver steatosis in IRAP knockout mice in a high fat diet (HFD) model. • H) Reversal of the salt-induced fibrosis in the liver following IRAP inhibitor treatment.
All mice which underwent surgery were anaesthetized with Isoflurane (Isorrane) (5% induction and 2.5% maintenance) and an incision made in the midscapular region through which osmotic minipumps (Alzet model 2004, Alza Corp) were inserted for subcutaneous drug administration. The incision area was sutured with 6/0 DY silk (Dynek Pty Ltd) and antibiotic powder applied (Cicatrin, Pfizer) followed by intramuscular injection of the analgesic Cartrophen (0.1 ml of a 1.5 mg/ml stock solution; Biopharm Australia). Systolic blood pressure (SBP) was measured fortnightly using non-invasive tail-cuff plethysmography apparatus (MC4000 Blood Pressure Analysis System, Hatteras Instrument Inc) before drug treatment (week 0), at week 2 of treatment and end of treatment (week 4). At the end of drug treatment, body weight of mice was recorded. Mice were anaesthetized using Isoflurane inhalation and killed by cervical dislocation. Organs (heart, aorta, kidneys, brain, blood and tibia) were collected, with heart and aorta being dissected appropriately as described below. All organs were then snap frozen in liquid nitrogen, and stored at −80° C. if they were not used for vascular reactivity studies conducted on the day mice were killed.
To measure collagen deposition, frozen sections of heart, kidney or aorta (all 5 μm thickness) were air dried for 10 minutes and were brought through 3 times xylene (2 minutes each), and 3 times absolute alcohol washes before being rinsed in tap H2O for 30 seconds. Staining with an optimal concentration of picrosirius red (in this instance 0.05% picrosirius red diluted in saturated picric acid) was performed and left for an hour. Sections were then rinsed in water and differentiated in 0.01 M HCl for 2 minutes, followed by dehydration via 3 times absolute alcohol washes. Then, slides were brought through 3 times xylene washes before being cover slipped according to standard histological techniques using DPX as the mounting medium. […]
(Immunoblotting shows a protein as a band on a membrane.)

Experiment [2] relates to kidneys of aged (18-22 month old) WT mice. Briefly: Reversal of age-induced kidney fibrosis in aged WT mice. The class given is in vivo, mouse. How it is done:
There are 8 different sets of in vivo experiments in this study: • A) Phenotypic characterisation of the heart and blood vessels in global IRAP knockout mice and their WT controls treated for 4 weeks with Angiotensin (Ang) II (800 ng/kg/min; s.c.) where mouse hearts and blood vessels were compared to tissue obtained from young WT and IRAP^−/− mice treated with saline. • B) Prevention of Ang II-induced changes in the cardiovascular system following IRAP inhibitor treatment. In the prevention model, WT mice were treated with Ang II (800 ng/kg/min; s.c.)±the IRAP inhibitor (HFI-419; 500 ng/kg/min for 28 days) or HFI-vehicle (1 DMSO:3 HBC). • C) Phenotypic characterisation of the aged heart, kidney and blood vessels in the global IRAP knockout mice where aged WT and IRAP^−/− mouse hearts, kidneys and blood vessels were compared to tissue obtained from young WT and IRAP^−/− mice. • D) Reversal of the age-induced changes in the cardiovascular system following IRAP inhibitor treatment. […]
To measure collagen deposition, frozen sections of heart, kidney or aorta (all 5 μm thickness) were air dried for 10 minutes and were brought through 3 times xylene (2 minutes each), and 3 times absolute alcohol washes before being rinsed in tap H2O for 30 seconds. […] Images were taken under ×20 magnification, using bright field (Olympus, BX51) and circularized polarized light microscopy (DM IRB, Leica) while percentage of positive interstitial collagen staining per total field of view was quantified using ImageJ 1.46 software (Java, NIH), and averaged out from a total of eight views as the final percentage collagen content in a particular animal. […]

Where [3] appears, read: aged WT mice, HFI-419 4 weeks, FIG. 13.
Where [4] appears, read: aged WT mice, HFI-419 4 weeks, FIG. 17.
The mark [5] stands for this setting: aged WT mice, HFI-419 4 weeks, FIG. 18.

Regarding `CCOC(=O)C1=C(NC(C)=O)Oc2cc(O)ccc2C1c1cccnc1` (stereo not drawn) [HFI-419], in experiment [1] (setting [3]), the “ICAM-1 expression in heart” value is recorded as “reduced”, the “MCP-1 expression in heart” value was “reduced”, the “NFκB activation in heart (phospho-IκBα)” value was “diminished” and the “macrophage expression in heart” value is listed as “reduced”. Also, the “superoxide production in heart (DHE)” value in experiment [1] (setting [3]) is given as “diminished”. In addition, in experiment [1] (setting [4]), the “MMP-2 protein level in heart” value is recorded as “no change”, the “MMP-8 protein expression in heart” value is reported as “trend towards increased”, the “MMP-9 protein level in heart” value is on record as “no change” and the “MMP-13 protein level in heart” value is given as “no change”. In experiment [1] (setting [4]), the “TIMP-1 protein levels in heart” value was “significantly decreased”; the “precursor and mature forms of collagen α1 Type I in heart (western blot)” value was “markedly reduced”. Besides, in experiment [1] (setting [5]), the “TGF-β1 expression in heart” value is recorded as “downregulation” and the “synthetic myofibroblasts (α-SMA) in heart” value is reported as “downregulation”. The “IRAP expression in heart” value in experiment [1] (~20 month old WT mice, HFI-419 500 ng/kg/min s.c., 4 weeks, FIG. 8c) is given as “significantly decreased”. For the same compound, the “age-induced cardiac collagen deposition (picrosirius red)” value in experiment [1] (~20 month old WT mice, HFI-419 500 ng/kg/min s.c., 4 weeks, FIGS. 15, 16) is reported as “reversed age-induced collagen deposition to the same level seen in young adult mice”. Moreover, the “IRAP expression in kidneys” value in experiment [2] (aged WT mice, HFI-419 500 ng/kg/min s.c., 4 weeks, FIG. 22b) is listed as “tended to be decreased”. In addition, the “αSMA-positive myofibroblast expression in kidneys” value in experiment [2] (aged WT mice, HFI-419 4 weeks vs vehicle, FIG. 24b) was “trend towards reduced”. The “age-induced collagen deposition in kidney (interstitial fibrosis, picrosirius red)” value in experiment [2] (~20 month old WT mice, HFI-419 500 ng/kg/min s.c., 4 weeks, FIG. 23) is given as “completely reverse”.

For the origin of these results see patent US11834663B2, “Fibrotic treatment” (Monash University, priority 2015, dated 2023).
